Measurements taken from patent US20250017889A1, “INHIBITORS OF P1B-TYPE ATPASES” (THE CURATORS OF THE UNIVERSITY OF MISSOURI, priority 2021, published 2025).

Key:
4T1 cells = assay: Sensitivity of 4T1 cells to metal ions, crystal violet assay; assay type: cell-based
Experimental: All metals were added as chloride salts except silver, which was added as silver nitrate (AgNO3).

ATP7B (hATP7B) = target: T1, ATP7B (hATP7B) (Homo sapiens, UniProt P35670); assay: Tyrosinase activation in B16 ATP7A^KO cells transfected with human ATP7B; assay type: cell-based; conditions: 10 μM, 24 h, ATP7A^KO melanoma cells
T1 construct: expressed in transfected cells; host or cells: B16 melanoma ATP7A^KO cells (mouse), transient transfection
T1 sequence (P35670 1-1465): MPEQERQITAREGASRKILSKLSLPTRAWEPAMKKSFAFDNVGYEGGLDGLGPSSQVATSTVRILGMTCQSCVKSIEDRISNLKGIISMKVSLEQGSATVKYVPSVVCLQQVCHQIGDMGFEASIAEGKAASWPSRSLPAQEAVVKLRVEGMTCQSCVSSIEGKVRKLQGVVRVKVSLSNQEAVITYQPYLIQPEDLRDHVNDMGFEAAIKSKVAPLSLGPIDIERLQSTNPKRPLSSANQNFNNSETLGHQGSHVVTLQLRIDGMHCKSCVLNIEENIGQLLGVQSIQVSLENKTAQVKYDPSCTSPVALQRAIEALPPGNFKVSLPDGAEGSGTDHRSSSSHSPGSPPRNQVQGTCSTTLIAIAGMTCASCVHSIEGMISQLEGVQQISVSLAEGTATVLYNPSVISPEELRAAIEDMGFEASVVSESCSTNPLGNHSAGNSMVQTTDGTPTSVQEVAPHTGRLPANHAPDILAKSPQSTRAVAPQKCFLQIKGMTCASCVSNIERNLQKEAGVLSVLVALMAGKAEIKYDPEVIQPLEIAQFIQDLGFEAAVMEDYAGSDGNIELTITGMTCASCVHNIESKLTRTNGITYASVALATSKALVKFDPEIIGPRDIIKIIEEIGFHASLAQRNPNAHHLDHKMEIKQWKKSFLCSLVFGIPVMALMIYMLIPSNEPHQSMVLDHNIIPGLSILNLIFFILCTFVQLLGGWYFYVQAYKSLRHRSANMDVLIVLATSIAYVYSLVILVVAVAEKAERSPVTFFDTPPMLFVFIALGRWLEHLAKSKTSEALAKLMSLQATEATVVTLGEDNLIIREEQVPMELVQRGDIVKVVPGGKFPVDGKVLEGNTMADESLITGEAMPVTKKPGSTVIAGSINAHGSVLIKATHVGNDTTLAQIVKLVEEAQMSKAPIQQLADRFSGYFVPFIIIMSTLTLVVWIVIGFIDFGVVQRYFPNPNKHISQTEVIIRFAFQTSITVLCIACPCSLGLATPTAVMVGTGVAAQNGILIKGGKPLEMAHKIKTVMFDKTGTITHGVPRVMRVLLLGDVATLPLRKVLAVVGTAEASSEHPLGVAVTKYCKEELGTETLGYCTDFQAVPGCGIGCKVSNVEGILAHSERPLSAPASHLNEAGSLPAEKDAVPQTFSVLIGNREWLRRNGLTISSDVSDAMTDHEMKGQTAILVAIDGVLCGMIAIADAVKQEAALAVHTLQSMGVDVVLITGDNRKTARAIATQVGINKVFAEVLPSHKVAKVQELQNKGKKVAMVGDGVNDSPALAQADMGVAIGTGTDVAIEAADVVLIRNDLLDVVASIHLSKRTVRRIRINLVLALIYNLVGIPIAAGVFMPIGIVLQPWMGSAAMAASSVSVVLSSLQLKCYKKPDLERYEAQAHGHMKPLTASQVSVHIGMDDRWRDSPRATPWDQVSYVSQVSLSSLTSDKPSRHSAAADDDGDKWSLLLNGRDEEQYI
Excerpt: Prior studies have shown that exogenously expressed ATP7B can activate tyrosinase in cells lacking ATP7A. For these studies, a B16 melanoma cell model was used in which tyrosinase activity can be detected by in situ oxidation of L-DOPA to DOPAchrome (10A). As shown earlier, B16 cells deleted for the ATP7A gene (ATP7A^KO) completely lack tyrosinase activity (10B). […] Quantification of tyrosinase activity in these cells is shown (10G). Data represent mean±SEM; ****p<0.0001 of three independent replicates.

N#CC(C(=O)Nc1cccc(C(F)(F)F)c1)C(=S)Nc1ccccc1Cl (stereo not drawn) [MKV3]
sensitivity to copper and silver (4T1 cells; 10 μM MKV3, 4T1 cells): conferred sensitivity to as little as 5 μM copper and silver | sensitivity to other metals (4T1 cells; 10 μM MKV3, other metals up to 50 μM): did not affect the sensitivity | activation of tyrosinase activity by ATP7B (ATP7B (hATP7B)): prevented activation of tyrosinase activity
